This note sets out measurements from patent US4593090A, “Novel nitrosourea compounds, method for preparing same, and pharmaceutical composition containing same” (Gogo Kimura, priority 1981, dated 1986).

Data set [1] can be described thus: Acute toxicity (LD50, Behrens-Karber method). As to conditions: mouse, in vivo, ip, mortality during 30 days. The data set is classed as in vivo, ICR mice. As to the method:
Test compounds, dissolved or suspended in 0.5% aqueous CMC, were each intraperitoneally administered to ICR mice in a dose of 0.1 ml per 10 g body weight. LD50 (mg/kg) value of each test compound was calculated from the mortality of mice during 30 days by the Behrens-Karber method.

In a further data set the test system is Leukemia L1210. Briefly: Activity against Leukemia L1210, intraperitoneal, increase in life span of mice. The data set is classed as in vivo, female mice (BDF1 family). As to conditions: for ED (maximum ILS) / ED30: Mus musculus, L1210, ip, ip once a day for 5 successive days; for ED (maximum ILS): daily dosage giving maximum increase of life span, read-out: O.D. (optimum dosage); for ED30: daily dosage increasing average survival days by 30%, read-out: ILS30; for Survivors after 60 days / Max. ILS % / Therapeutic ratio TR: ip; for Survivors after 60 days: 6-membered group; for Max. ILS %: 60-day observation, versus control; for Therapeutic ratio TR: O.D./ILS30. As for the experimental part:
Tests were conducted in accordance with the method for measuring antitumor activity of National Cancer Center Tokyo (A, Hoshi et al, Farumashia 9 464 (1973)). Test compounds were each intraperitoneally (referred to as ip) or orally (referred to as op) administered once a day for 5 successive days to a 6-membered group of femal mice (BDF1 family, each weighing 20 to 23 g) 24 hours after 1×10^5 cells of Leukemia L1210 have been implantated into the abdominal cavities of the mice, and the effect was evaluated by comparing the survival days of treated groups with those of an untreated group of mice (control group) in 60-day observation. An increase percentage of life span (ILS%) was calculated from said average survival days compared with those of the control group. Further, therapeutic ratio (O.D./ILD30, referred to as T.R.) of each tested compound was calculated from the daily dosage of the compound necessary to increase said average survival days by 30% as compared with the control group (this dosage is referred to as ILS 30) and the daily dosage giving a maximum increase of life span to mice implantated with L1210 cells, namely an optimum dosage (referred to as O.D.). The results of five successive days intraperitoneal administrations of test compounds were shown in Tables I to III, and those of five successive oral administrations in Table IV.

As usually defined, the LD50 is the dose expected to kill half of the subjects tested. The compound `COCCCN(C(=O)N(CCCl)N=O)[C@@H]1CO[C@H](OC2CCCCC2)[C@@H](O)[C@@H]1O` [Compound 160, 3-(3-methoxy-n-propyl)-3-(cyclohexyl α-D-arabinopyranose-4-yl)-1-(2-chloroethyl)-1-nitrosourea] had a 50% lethal dose (LD50) at 720 h in data set [1] of 550 mg/kg. Further, in the data set on Leukemia L1210, the ED (maximum ILS) was 180 mg/kg, the ED30 was 3.1 mg/kg, the “Survivors after 60 days” value is recorded as 6/6 and the “Max. ILS %” value was more than 700%. In addition, the “Therapeutic ratio TR” value in the data set on Leukemia L1210 was determined as 58.1.

For the compound `COc1ccc(CN(C[C@H]2O[C@H](OC3CCCCC3)[C@H](O)[C@@H](O)[C@H]2O)C(=O)N(CCCl)N=O)cc1` [Compound 104, 3-(p-methoxybenzyl)-3-(cyclohexyl α-D-galactopyranose-6-yl)-1-(2-chloroethyl)-1-nitrosourea], the LD50 at 720 h in data set [1] worked out at 630 mg/kg. For the same compound, in the data set on Leukemia L1210, the ED (maximum ILS) is 200 mg/kg, the ED30 is 6.61 mg/kg, the “Survivors after 60 days” value is reported as 3/6 and the “Max. ILS %” value is more than 325%. In addition, the “Therapeutic ratio TR” value in the data set with Leukemia L1210 came out at 30.3.

The compound `COC(C)CN(C[C@H]1O[C@H](OC2CCCCC2)[C@H](O)[C@@H](O)[C@H]1O)C(=O)N(CCCl)N=O` (stereo partly drawn) [Compound 103, 3-(2-methoxy-n-propyl)-3-(cyclohexyl α-D-galactopyranose-6-yl)-1-(2-chloroethyl)-1-nitrosourea] had an LD50 at 720 h in data set [1] of 685 mg/kg. In addition, in the data set with Leukemia L1210, the ED (maximum ILS) worked out at 200 mg/kg, the ED30 stood at 3.63 mg/kg, the “Survivors after 60 days” value is reported as 5/6 and the “Max. ILS %” value is more than 625%. Also, in the data set on Leukemia L1210, the “Therapeutic ratio TR” value is listed as 55.1.

As for `COCCCN(C(=O)N(CCCl)N=O)[C@@H]1[C@@H](O)[C@@H](OCC(C)C)O[C@@H]1CO` [Compound 165, 3-(3-methoxy-n-propyl)-3-(isobutyl α-D-xylofuranose-3-yl)-1-(2-chloroethyl)-1-nitrosourea], the LD50 at 720 h in data set [1] was 480 mg/kg. Also, in the data set on Leukemia L1210, the ED (maximum ILS) was 160 mg/kg, the ED30 came out at 5.57 mg/kg, the “Survivors after 60 days” value is reported as 3/6 and the “Max. ILS %” value is more than 340%. For the same compound, in the data set on Leukemia L1210, the “Therapeutic ratio TR” value is recorded as 28.7.

Consider `CCCCCCN(C[C@H]1O[C@H](OCCCC)[C@H](O)[C@@H](O)[C@@H]1O)C(=O)N(CCCl)N=O` [Compound 7, 3-n-hexyl-3-(n-butyl α-D-glucopyranose-6-yl)-1-(2-chloroethyl)-1-nitrosourea], for which the LD50 at 720 h in data set [1] was 410 mg/kg. In addition, in the data set with Leukemia L1210, the ED (maximum ILS) was found to be 140 mg/kg, the ED30 is 5.2 mg/kg, the “Survivors after 60 days” value is reported as 5/6 and the “Max. ILS %” value is on record as more than 620%. Also, the “Therapeutic ratio TR” value in the data set with Leukemia L1210 is on record as 26.9.

For the compound `COCC(C)OC1OC(CO)C(O)C(N(CC(C)C)C(=O)N(CCCl)N=O)C1O` [Compound 79, 3-isobutyl-3-(1-methyl-2-methoxyethyl α-D-glucopyranose-3-yl)-1-(2-chloroethyl)-1-nitrosourea], the LD50 at 720 h in data set [1] was 690 mg/kg. In addition, in the data set on Leukemia L1210, the ED (maximum ILS) was found to be 200 mg/kg, the ED30 was 4.93 mg/kg, the “Survivors after 60 days” value is 4/6 and the “Max. ILS %” value is more than 430%. Also, the “Therapeutic ratio TR” value with Leukemia L1210 worked out at 40.6.

In data set [1], `COCC(C)OC1OC(CO)C(O)C(O)C1N(CC1CC1)C(=O)N(CCCl)N=O` [Compound 72, 3-cyclopropylmethyl-3-(1-methyl-2-methoxyethyl α-D-glucopyranose-2-yl)-1-(2-chloroethyl)-1-nitrosourea] came in with an LD50 at 720 h of 550 mg/kg. In the data set on Leukemia L1210, the ED (maximum ILS) worked out at 180 mg/kg, the ED30 amounted to 4.53 mg/kg, the “Survivors after 60 days” value is reported as 5/6 and the “Max. ILS %” value is listed as more than 625%. Besides, the “Therapeutic ratio TR” value in the data set on Leukemia L1210 turned out to be 39.7.

Compound `O=NN(CCCl)C(=O)N(Cc1ccccc1)C[C@H]1O[C@H](OC2CCCCC2)[C@H](O)[C@@H](O)[C@@H]1O` [Compound 46, 3-benzyl-3-(cyclohexyl α-D-glucopyranose-6-yl)-1-(2-chloroethyl)-1-nitrosourea] returned an LD50 at 720 h in data set [1] of 510 mg/kg. Moreover, in the data set with Leukemia L1210, the ED (maximum ILS) is 150 mg/kg, the ED30 was determined as 3.9 mg/kg, the “Survivors after 60 days” value is 4/6 and the “Max. ILS %” value is more than 425%. Also, the “Therapeutic ratio TR” value in the data set on Leukemia L1210 is listed as 38.5.

In turn, `C=C(C)CN(C[C@H]1O[C@H](OC(C)CC)[C@H](O)[C@@H](O)[C@@H]1O)C(=O)N(CCCl)N=O` (stereo partly drawn) [Compound 18, 3-(2-methyl-2-propenyl)-3-(sec-butyl α-D-glucopyranose-6-yl)-1-(2-chloroethyl)-1-nitrosourea] returned an LD50 at 720 h in data set [1] of 515 mg/kg. Besides, in the data set on Leukemia L1210, the ED (maximum ILS) was found to be 170 mg/kg, the ED30 came to 3.92 mg/kg, the “Survivors after 60 days” value is given as 6/6 and the “Max. ILS %” value is on record as more than 700%. Moreover, in the data set with Leukemia L1210, the “Therapeutic ratio TR” value was 43.4.

`CCC(C)N(C(=O)N(CCCl)N=O)[C@H]1[C@H](O)[C@H](O)[C@@H](OCc2ccccc2)O[C@@H]1CO` (stereo partly drawn) [Compound 138, 3-sec-butyl-3-(benzylα-D-mannopyranose-4-yl)-1-(2-chloroethyl)-1-nitrosourea] had a median lethal dose (LD50) at 720 h in data set [1] of 370 mg/kg. Also, in the data set with Leukemia L1210, the ED (maximum ILS) was found to be 120 mg/kg, the ED30 is 4.26 mg/kg, the “Survivors after 60 days” value is 3/6 and the “Max. ILS %” value was more than 350%. The “Therapeutic ratio TR” value in the data set with Leukemia L1210 is recorded as 28.2.

The compound `CC(C)(C)N(C[C@H]1O[C@H](OC(c2ccccc2)C2CC2)[C@H](O)[C@@H](O)[C@@H]1O)C(=O)N(CCCl)N=O` (stereo partly drawn) [Compound 201, 3-tert-butyl-3-(α-cyclopropylbenzyl α-D-glucopyranose-6-yl)-1-(2-chloroethyl)-1-nitrosourea] showed an LD50 at 720 h in data set [1] of 460 mg/kg. Further, in the data set on Leukemia L1210, the ED (maximum ILS) amounted to 150 mg/kg, the ED30 worked out at 4.78 mg/kg, the “Survivors after 60 days” value is given as 6/6 and the “Max. ILS %” value is listed as more than 700%. For the same compound, the “Therapeutic ratio TR” value with Leukemia L1210 came out at 31.4.

In data set [1], `COCC(C)N(C[C@H]1O[C@H](OC2CCCC2)[C@H](O)[C@@H](O)[C@@H]1O)C(=O)N(CCCl)N=O` (stereo partly drawn) [Compound 172, 3-(1-methy-2-methoxyethyl)-3-(cyclopentyl α-D-glucopyranose-6-yl)-1-(2-chloroethyl)-1-nitrosourea] came in with an LD50 at 720 h of 600 mg/kg. In addition, in the data set with Leukemia L1210, the ED (maximum ILS) was 180 mg/kg, the ED30 is 2.67 mg/kg, the “Survivors after 60 days” value is listed as 6/6 and the “Max. ILS %” value was more than 700%. In addition, in the data set with Leukemia L1210, the “Therapeutic ratio TR” value is recorded as 67.3.

Turning to `CCCCO[C@H]1O[C@H](CN(CC(C)C)C(=O)N(CCCl)N=O)[C@@H](O)[C@H](O)[C@H]1O` [Compound 9, 3-isobutyl-3-(n-butyl α-D-glucopyranose-6-yl)-1-(2-chloroethyl)-1-nitrosourea], the LD50 at 720 h in data set [1] is 440 mg/kg. In addition, in the data set with Leukemia L1210, the ED (maximum ILS) was found to be 150 mg/kg, the ED30 worked out at 3.33 mg/kg, the “Survivors after 60 days” value is listed as 6/6 and the “Max. ILS %” value is on record as more than 700%. Moreover, the “Therapeutic ratio TR” value in the data set on Leukemia L1210 came out at 45.0.

The compound `C=C(C)CN(C(=O)N(CCCl)N=O)C1C(CO)OC(OC(C)CC)C(O)C1O` [Compound 91, 3-(2-methyl-2-propenyl)-3-(sec-butyl α-D-glucopyranose-4-yl)-1-(2-chloroethyl)-1-nitrosourea] registered an LD50 at 720 h in data set [1] of 450 mg/kg. Besides, in the data set with Leukemia L1210, the ED (maximum ILS) came out at 150 mg/kg, the ED30 came to 4.65 mg/kg, the “Survivors after 60 days” value was 3/6 and the “Max. ILS %” value is reported as more than 340%. In the data set with Leukemia L1210, the “Therapeutic ratio TR” value stood at 32.3.

As to `CCC(C)O[C@H]1O[C@H](CN(CCC(C)(C)C)C(=O)N(CCCl)N=O)[C@@H](O)[C@H](O)[C@H]1O` (stereo partly drawn) [Compound 190, 3-(3,3-dimethyl-n-butyl)-3-(sec-butyl α-D-glucopyranose-6-yl)-1-(2-chloroethyl)-1-nitrosourea], the 50% lethal dose (LD50) at 720 h in data set [1] is 470 mg/kg. Further, in the data set with Leukemia L1210, the ED (maximum ILS) stood at 150 mg/kg, the ED30 was determined as 3.12 mg/kg, the “Survivors after 60 days” value was 6/6 and the “Max. ILS %” value is reported as more than 700%. For the same compound, the “Therapeutic ratio TR” value with Leukemia L1210 was 48.1.

Compound `COCC(C)OC1OC(CO)C(O)C(O)C1N(CC(C)C)C(=O)N(CCCl)N=O` (stereo not drawn) [Compound 70] yielded an LD50 at 720 h in data set [1] of 645 mg/kg. In the data set with Leukemia L1210, the ED (maximum ILS) is 200 mg/kg, the ED30 was 5.21 mg/kg, the “Survivors after 60 days” value is on record as 4/6 and the “Max. ILS %” value is more than 420%. Moreover, the “Therapeutic ratio TR” value in the data set with Leukemia L1210 was 38.4.

In data set [1], `CC(C)CN(C(=O)N(CCCl)N=O)C1C(OC2CCCCC2)OC(CO)C(O)C1O` [Compound 73, 3-isobutyl-3-(cyclohexyl α-D-glucopyranose-2-yl)-1-(2-chloroethyl)-1-nitrosourea] displayed an LD50 at 720 h of 670 mg/kg. In the data set with Leukemia L1210, the ED (maximum ILS) is 200 mg/kg, the ED30 came to 5.38 mg/kg, the “Survivors after 60 days” value is listed as 4/6 and the “Max. ILS %” value was more than 420%. Besides, in the data set on Leukemia L1210, the “Therapeutic ratio TR” value is given as 37.2.
